Source: US20250121083A1, “Tumor-Associated Calcium Signal Transducer 2 (TACSTD2) Antibody-Maytansine Conjugates and Methods of Use Thereof” (priority 2021, published 2025)

Experiments:
[1] = tested on: TACSTD2-positive cell lines Bx-PC-3, NCI-H87, NCI-H292, and MDA-MB-468; test: In vitro cytotoxicity, Cell Titer-Glo, 5 d; format: cell-based; details: 120 h, range over the four tested cell lines, read-out: IC50 concentrations
Experimental: The TACSTD2-positive cell lines, Bx-PC-3, […], NCI-H292, and MDA-MB-468 were obtained from the ATCC cell bank. The cells were maintained in RPMI 1640 or DMEM medium (Cellgro) supplemented with 10 or 20% fetal bovine serum (Invitrogen) and Glutamax (Invitrogen). 24 h prior to plating, cells were passaged to ensure log-phase growth. On the day of plating, 5000 cells/well were seeded onto 96-well plates in 100 μL normal growth medium supplemented with 10 IU penicillin and 10 μg/mL streptomycin (Cellgro). […] After 5 d, 100 μL/well of Cell Titer-Glo reagent (Promega) was added, and luminescence was measured using a Molecular Devices SpectraMax M5 plate reader. GraphPad Prism software was used for data analysis.

MDA-MB-468 cells = test: In vitro cytotoxicity, Cell Titer-Glo, 8 d; format: cell-based; details: Homo sapiens, 192 h
Experimental: Methods: The TACSTD2-positive cell line, MDA-MB-468 was obtained from the ATCC cell bank. The cells were maintained in DMEM medium supplemented with 10% fetal bovine serum (Invitrogen), 2× Glutamax (Invitrogen) and 1× antibiotic/antimycotic (Corning). On the day of plating, 1500 cells/well were seeded onto 96-well plates in 100 μL normal growth medium. Cells were treated at various concentrations with 20 μL of diluted analytes (sacituzumab compound 21 ADC or free belotecan payload), and the plates were incubated at 37° C. in an atmosphere of 5% CO2. After 8 d, 100 μL/well of Cell Titer-Glo reagent (Promega) was added, and luminescence was measured using a Molecular Devices SpectraMax M5 plate reader. GraphPad Prism software was used for data analysis.

NCI-H292 xenograft model = test: NCI-H292 xenograft study; format: in vivo, female SCID Beige mice; details: 26 mg/kg x 4 doses, i.v.; 8 mice per group
From the text: Methods: For the NCI-H292 study, female SCID Beige mice (8 per group) were inoculated subcutaneously with 5 million NCI-H292 cells in PBS. Treatment began when the tumors reached an average of 116 mm^3. For the NCI-N87 study, female BALB/c nude mice (8 per group) were inoculated subcutaneously with 10 million NCI-N87 cells in a 1:1 solution of PBS:Matrigel. Treatment began when the tumors reached an average of 221 mm^3. […] Two general dosing schedules were used: either test articles were delivered once every 3 wk (arrowheads) or they were delivered two times in a three week period, on days 0 and 7 (arrows). The dosing cycles were repeated twice, so that animals in the first dosing group received a total of 2 doses, while the animals in the second dosing group received a total of 4 doses. The animals were monitored twice weekly for body weight and tumor size. Animals were euthanized when tumors reached 2000 mm^3.
For the results shown in FIG. 8, CR refers to an individual mouse that has no detectable tumor volume, which could be for only a short time, for example, one observation, or it could be for a longer period. […] The lines in FIG. 8 show the mean tumor volume across all mice in a group. Because 8 mice were used per group, the line shown in FIG. 8 might not go to zero; however, there could still be individual animals that attained CR.

[2] = cited from earlier work

Molecule: COc1cc2cc(c1Cl)N(C)C(=O)C[C@H](OC(=O)[C@H](C)N(C)C(C)=O)[C@]1(C)O[C@H]1[C@H](C)[C@@H]1C[C@@](O)(NC(=O)O1)[C@H](OC)/C=C/C=C(\C)C2 [free maytansine, maytansine]
- IC50 [1]: 0.05 to 0.23 nM
- IC50 (MDA-MB-468 cells): 0.77 nM

Molecule: Trodelvy [reference compound]
- complete responses (CRs) (NCI-H292 xenograft model): 1/8

B1: DS-1062: Daiichi Sankyo's TROP-2-targeted ADC (conjugate, chains of the INN, looked up)
VH: QVQLVQSGAEVKKPGASVKVSCKASGYTFTTAGMQWVRQAPGQGLEWMGWINTHSGVPKYAEDFKGRVTISADTSTSTAYLQLSSLKSEDTAVYYCARSGFGSSYWYFDVWGQGTLVTVSS
VL: DIQMTQSPSSLSASVGDRVTITCKASQDVSTAVAWYQQKPGKAPKLLIYSASYRYTGVPSRFSGSGSGTDFTLTISSLQPEDFAVYYCQQHYITPLTFGQGTKLEIK
modifications: deruxtecan payload
notes: Daiichi Sankyo's TROP-2-targeted ADC
- intestinal toxicity ([2]; 10 mg/kg): toxicity findings in the intestines
- safety signals in healthy tissues that express TROP-2 ([2]; >10 mg/kg, skin, cornea, oral, esophageal, vaginal mucosa): key adverse safety signals (including necrosis)
